Usually IC50 stands for the concentration needed to halve the response being measured.

For this test, the target named is full-length recombinant human FYN A (Homo sapiens (Human), UniProt P06241). As to the kind of experiment: ADP-Glo Kinase Assay of FYN kinase inhibition. The class given is biochemical. Conditions: primary screen, initial compounds. In a few lines: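 ADP-Glo read-out of peptide phosphorylation after 90 min RT with 12.5 pmol ATP and 100 pg 12-mer substrate. Enzyme was N-GST full-length human FYN A from insect cells, 3 pg, pre-incubated 30 min with compound, 10 points from 10 μM top, 3-fold steps; IC50 from curve.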
Chain of full-length recombinant human FYN A (P06241 whole entry): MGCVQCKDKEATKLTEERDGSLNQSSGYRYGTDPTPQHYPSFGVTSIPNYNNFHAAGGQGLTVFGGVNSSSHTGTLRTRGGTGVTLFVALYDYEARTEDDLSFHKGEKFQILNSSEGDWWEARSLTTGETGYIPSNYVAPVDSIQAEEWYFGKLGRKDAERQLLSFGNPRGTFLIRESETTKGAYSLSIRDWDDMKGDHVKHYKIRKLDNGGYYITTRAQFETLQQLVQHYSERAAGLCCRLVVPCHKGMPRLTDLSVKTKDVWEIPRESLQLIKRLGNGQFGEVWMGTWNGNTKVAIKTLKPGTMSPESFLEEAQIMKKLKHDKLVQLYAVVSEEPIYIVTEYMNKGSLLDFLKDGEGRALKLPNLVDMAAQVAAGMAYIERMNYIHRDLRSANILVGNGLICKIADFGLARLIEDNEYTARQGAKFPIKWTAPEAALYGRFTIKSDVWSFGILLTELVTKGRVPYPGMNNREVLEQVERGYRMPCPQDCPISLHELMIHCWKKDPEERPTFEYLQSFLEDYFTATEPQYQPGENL
With `COc1cncc(-c2cnc3ccc(Cc4ccc(F)cc4)nn23)c1` [Compound 473, 6-[(4-fluoro-phenyl)methyl]-3-(5-methoxy-3-pyridyl)imidazo [1,2-b]pyridazine], the IC50 is 4.42 µM.
Turning to `O=C(NCCO)c1cccc(-c2ccc3ncc(-c4ccc(CO)cc4)n3n2)c1` [Compound 475, N-(2-hydroxyethyl)-3-[3-[4-(hydroxymethyl)phenyl]imidazo [1,2-b]pyridazin-6-yl]benzamide], the half-inhibitory concentration (IC50) is 2.14 µM.
With `COc1cc(-c2cnc3ccc(-c4cccc(C(N)=O)c4)nn23)ccc1O` [Compound 476, 3-[3-(4-hydroxy-3-methoxy-phenyl)imidazo [1,2-b]pyridazin-6-yl]benzamide] the figure was 0.223 µM; with `Cc1cccc(Cc2ccc3ncc(-c4cnn(C)c4)n3n2)c1` [Compound 477, 3-(1-methylpyrazol-4-yl)-6-(m-tolylmethyl) imidazo[1,2-b]pyridazine], 1.8 µM.
With `CC(=O)c1cccc(-c2cnc3ccc(-c4cccc(C(=O)NCCO)c4)nn23)c1` [Compound 478, 3-[3-(3-acetylphenyl)imidazo[1,2-b]pyridazin-6-yl]-N-(2-hydroxyethyl) benzamide] the figure was 0.629 µM.
With `OCc1ccc(-c2cnc3ccc(Cc4ccccc4)nn23)cc1` [Compound 479, [4-(6-benzylimidazo [1,2-b]pyridazin-3-yl)phenyl] methanol] the figure was 3.23 µM; with `COc1cc(-c2cnc3ccc(Cc4ccc(F)cc4)nn23)ccc1O` [Compound 480, 4-[6-[(4-fluorophenyl)methyl]imidazo [1,2-b]pyridazin-3-yl]-2-methoxy-phenol], 2.09 µM.
With `Cn1cc(-c2cnc3ccc(Cc4ccc(F)cc4)nn23)cn1` [Compound 481, 6-[(4-fluorophenyl)methyl]-3-(1-methylpyrazol-4-yl)imidazo [1,2-b]pyridazine], the IC50 turned out to be 1.3 µM.
As for `O=C(NCCO)c1cccc(-c2ccc3ncc(-c4cccc(Cl)c4)n3n2)c1` [Compound 483, 3-[3-(3-chlorophenyl)imidazo[1,2-b]pyridazin-6-yl]-N-(2-hydroxyethyl) benzamide], the figure is 30 µM; as for `Cc1cccc(Cc2ccc3ncc(-c4cccc(C(N)=O)c4)n3n2)c1` [Compound 484, 3-[6-(m-tolylmethyl)imidazo[1,2-b]pyridazin-3-yl]benzamide], 2.17 µM.
With `CC(=O)c1cccc(-c2cnc3ccc(Cc4ccccc4)nn23)c1` [Compound 485, 1-[3-(6-benzylimidazo [1,2-b]pyridazin-3-yl)phenyl] ethanone], the half-maximal inhibitory concentration (IC50) turned out to be 3.97 µM.
As to `Nc1ccc(-c2cnc3ccc(Cc4ccccc4)nn23)cn1` [Compound 486, 5-(6-benzylimidazo [1,2-b]pyridazin-3-yl)pyridin-2-amine], the half-inhibitory concentration (IC50) worked out at 3.64 µM.
For the molecule `CN(C)CCNC(=O)c1cccc(-c2cnc3ccc(-c4ccoc4)nn23)c1` [Compound 487, N-(2-dimethylamino-ethyl)-3-[6-(3-furyl)imidazo [1,2-b]pyridazin-3-yl]benzamide], the IC50 was 3.88 µM.
With `CNC(=O)c1cccc(-c2ccc3ncc(-c4ccc(CO)cc4)n3n2)c1` [Compound 488, 3-[3-[4-(hydroxymethyl)phenyl]imidazo [1,2-b]pyridazin-6-yl]-N-methyl-benzamide] the figure was 14.9 µM; with `COc1ccccc1-c1n[nH]c2nccc(-c3ccc(N4CCOCC4)cc3)c12` [Compound 489, 4-[4-[3-(2-methoxyphenyl)-1H-pyrazolo[3,4-b]pyridin-4-yl]phenyl] morpholine], 1.39 µM.
With `COc1ccccc1-c1n[nH]c2nccc(-c3ccc(F)c(Cl)c3)c12` [Compound 490, 4-(3-chloro-4-fluoro-phenyl)-3-(2-methoxy-phenyl)-1H-pyrazolo[3,4-b]pyridine] the figure was 1.28 µM.
With `COc1ccc(-c2ccnc3[nH]nc(-c4ccccc4OC)c23)cn1` [Compound 491, 3-(2-methoxyphenyl)-4-(6-methoxy-3-pyridyl)-1H-pyrazolo[3,4-b]pyridine] the figure was 2.93 µM; with `COc1ncc(-c2ccnc3[nH]nc(-c4ccccc4OC)c23)cn1` [Compound 492, 3-(2-methoxyphenyl)-4-(2-methoxy-pyrimidin-5-yl)-1H-pyrazolo[3,4-b]pyridine], 6.43 µM; with `CN(C)C(=O)c1ccc(-c2ccnc3[nH]nc(-c4cccc(F)c4)c23)cc1` [Compound 493, 4-[3-(3-fluorophenyl)-1H-pyrazolo[3,4-b]pyridin-4-yl]-N,N-dimethyl-benzamide], 3.86 µM.
Turning to `CN(C)C(=O)c1ccc(-c2ccnc3[nH]nc(-c4ccsc4)c23)cc1` [Compound 494, N,N-dimethyl-4-[3-(3-thienyl)-1H-pyrazolo[3,4-b]pyridin-4-yl]benzamide], the IC50 was 11.2 µM.
With `CC(=O)Nc1ccc(-c2ccnc3[nH]nc(C4CC4)c23)cc1` [Compound 495, N-[4-(3-cyclopropyl-1H-pyrazolo[3,4-b]pyridin-4-yl)phenyl] acetamide], the IC50 is 8.89 µM.
With `Nc1cccc(-c2ccnc3[nH]nc(-c4ccncc4)c23)c1` [Compound 496, 3-[3-(4-pyridyl)-1H-pyrazolo[3,4-b]pyridin-4-yl]aniline], the IC50 came to 18 µM.
As for `OCc1ccc(-c2ccnc3[nH]nc(-c4cccc(F)c4)c23)cc1` [Compound 497], the figure is 3.88 µM; as for `COc1ccccc1-c1n[nH]c2nccc(-c3ccsc3)c12` [Compound 498, 3-(2-methoxyphenyl)-4-(3-thienyl)-1H-pyrazolo[3,4-b]pyridine], 2.67 µM.
Consider `COc1cc(-c2n[nH]c3nccc(-c4ccc(NC(C)=O)cc4)c23)cc(OC)c1OC` [Compound 499, N-[4-[3-(3,4,5-trimethoxy-phenyl)-1H-pyrazolo[3,4-b]pyridin-4-yl]phenyl] acetamide], for which the IC50 is 2.02 µM.
For `COc1ccccc1-c1n[nH]c2nccc(/C=C/c3ccccc3)c12` [Compound 500, 3-(2-methoxyphenyl)-4-[(E)-styryl]-1H-pyrazolo[3,4-b]pyridine], the IC50 stood at 1.13 µM.
As for `COc1ccccc1-c1n[nH]c2nccc(-c3cccc(F)c3)c12` [Compound 501, 4-(3-fluorophenyl)-3-[2-methoxy-phenyl)-1H-pyrazolo[3,4-b]pyridine], the figure is 1.35 µM.
As for `COc1ccccc1-c1n[nH]c2nccc(-c3ccc(C(N)=O)cc3)c12` [Compound 502, 4-[3-(2-methoxyphenyl)-1H-pyrazolo[3,4-b]pyridin-4-yl]benzamide], the IC50 turned out to be 1.48 µM.
As for `OCc1ccc(-c2ccnc3[nH]nc(-c4ccccc4)c23)cc1` [Compound 503, [4-(3-phenyl-1H-pyrazolo[3,4-b]pyridin-4-yl)phenyl] methanol], the figure is 7.11 µM; as for `c1ccc(-c2n[nH]c3nccc(-c4cn[nH]c4)c23)cc1` [Compound 504, 3-phenyl-4-(1H-pyrazol-4-yl)-1H-pyrazolo[3,4-b]pyridine], 0.852 µM; as for `COc1cc(-c2n[nH]c3nccc(-c4ccc(C(C)C)cc4)c23)cc(OC)c1OC` [Compound 505, 4-(4-isopropylphenyl)-3-(3,4,5-trimethoxy-phenyl)-1H-pyrazolo[3,4-b]pyridine], 20.9 µM.
For the molecule `Clc1cccc(-c2ccnc3[nH]nc(C4CC4)c23)c1` [Compound 506, 4-(3-chlorophenyl)-3-cyclopropyl-1H-pyrazolo[3,4-b]pyridine], the 50% inhibitory concentration (IC50) is 30 µM.
Consider `COc1ccccc1-c1n[nH]c2nccc(-c3cccc(C(=O)NCCN(C)C)c3)c12` [Compound 507, N-(2-dimethylamino-ethyl)-3-[3-(2-methoxyphenyl)-1H-pyrazolo[3,4-b]pyridin-4-yl]benzamide], for which the half-inhibitory concentration (IC50) came out at 4.85 µM.
As for `COc1ccccc1-c1n[nH]c2nccc(-c3cccc(CO)c3)c12` [Compound 508, [3-[3-(2-methoxyphenyl)-1H-pyrazolo[3,4-b]pyridin-4-yl]phenyl] methanol], the figure is 1.67 µM.
With `NC(=O)c1ccc(-c2ccnc3[nH]nc(-c4cccc(F)c4)c23)cc1` [Compound 509, 4-[3-(3-fluorophenyl)-1H-pyrazolo[3,4-b]pyridin-4-yl]benzamide] the figure was 2.05 µM; with `NC(=O)c1ccc(-c2ccnc3[nH]nc(-c4ccc(Cl)cc4)c23)cc1` [Compound 510, 4-[3-(4-chlorophenyl)-1H-pyrazolo[3,4-b]pyridin-4-yl]benzamide], 5.71 µM; with `COc1cc(-c2n[nH]c3nccc(-c4cccc(O)c4)c23)cc(OC)c1OC` [Compound 511, 3-[3-(3,4,5-trimethoxy-phenyl)-1H-pyrazolo[3,4-b]pyridin-4-yl]phenol], 5.03 µM.
Consider `CC(=O)c1cccc(-c2ccnc3[nH]nc(C4CCNCC4)c23)c1` [Compound 512, 1-[3-[3-(4-piperidyl)-1H-pyrazolo[3,4-b]pyridin-4-yl]phenyl] ethanone], for which the 50% inhibitory concentration (IC50) amounted to 19.7 µM.
As for `CC(=O)Nc1ccc(-c2ccnc3[nH]nc(-c4ccsc4)c23)cc1` [Compound 513, N-[4-[3-(3-thienyl)-1H-pyrazolo[3,4-b]pyridin-4-yl]phenyl] acetamide], the figure is 4.87 µM; as for `COc1cc(-c2ccnc3[nH]nc(C4CCNCC4)c23)ccc1O` [Compound 514, 2-methoxy-4-[3-(4-piperidyl)-1H-pyrazolo[3,4-b]pyridin-4-yl]phenol], 11.9 µM; as for `COc1cc(-c2n[nH]c3nccc(-c4cccc(NS(C)(=O)=O)c4)c23)cc(OC)c1OC` [Compound 515, N-[3-[3-(3,4,5-trimethoxy-phenyl)-1H-pyrazolo[3,4-b]pyridin-4-yl]phenyl] methane-sulfonamide], 12.8 µM.
Take `COc1ccccc1-c1n[nH]c2nccc(-c3ccoc3)c12` [Compound 516, 4-(3-furyl)-3-(2-methoxyphenyl)-1H-pyrazolo[3,4-b]pyridine]: the IC50 was 4.9 µM.
As for `Oc1cccc(-c2ccnc3[nH]nc(-c4ccc5c(c4)OCO5)c23)c1` [Compound 517, 3-[3-(1,3-benzodioxol-5-yl)-1H-pyrazolo[3,4-b]pyridin-4-yl]phenol], the figure is 6.25 µM.

Source of the values: patent US10688093B2, “Methods, compositions, and uses of novel Fyn kinase inhibitors” (priority 2015, dated 2020).
